Data: patent US10383859B2, “Benzo[d]thiazole derivative or salt thereof, and pharmaceutical composition including same” (Yuhan Corporation, priority 2016, dated 2019)

What follows are molecules tested on A549 cells (assay: Cell migration assay (24-well transwell, laminin)). Conditions: Homo sapiens, A549, 6 h, laminin 10 μg/mL in lower well, test compounds 0.39˜100 μM, migrated cells counted, read-out: Inhibitory activity against cell migration.
Assay type: cell-based, human
Method: Cell migration was measured with a 24-well transwell having a polycarbonate membrane (8.0 μm pore size, Costar) at the bottom of the upper chamber. Each lower well was treated with laminin (10 μg/mL) and test compounds in predetermined concentrations (0.39˜100 μM) along with a serum-free RPMI1640 medium. A549 cells (Korean Cell Line Bank) were suspended in a serum-free RPMI1640 medium at a concentration of 1×10^6 cells/mL and then the test compounds were added thereto at the indicated concentrations. Each resulting solution (100 μL) was added to the upper chamber. The cells were cultured at 37° C. for 6 hours in a CO2 incubator. The upper chamber was taken out and then the cells were fixed with PBS containing 70% methyl alcohol for 10 minutes, followed by washing with PBS twice. The cells were stained with hematoxylin (Sigma) for 10 minutes and then washed with distilled water. The non-migrated cells were removed from the upper portion of the polycarbonate membrane with a cotton swab. The membranes were excised and separated from the chamber, and then mounted to a slide using a gel mount reagent (Biomeda, USA). The migrated cells (attached to the lower face of the membrane) were counted at three randomly selected sites under a microscope (×20). The cell counting was performed with the Image J program. From the counted cell numbers, each IC50 value was calculated by non-linear regression curve fit using the “GraphPad Prism” program.
The cells are pulled by laminin residing in the lower chamber and then passed through the polycarbonate membrane, so as to attach to the lower face of the membrane.

| IC50 | SMILES |
| --- | --- |
| < 1 µM | COc1ccc(CCN(Cc2ccc(C(=O)O)cc2)c2nc3cccc(F)c3s2)c(C)c1 [Example 50, 4-({(7-fluorobenzo[d]thiazol-2-yl)[2-(4-methoxy-2-methylphenyl)ethyl]amino}methyl)benzoic acid] |
| > 10 µM | COc1ccc(CCN(c2nc3cc(F)cc(F)c3s2)C(C)c2ccc(C(=O)O)cc2)cc1 (stereo not drawn) [Example 99, 4-(1-{(5,7-difluorobenzo[d]thiazol-2-yl)[2-(4-methoxyphenyl)ethyl]amino}ethyl)benzoic acid] |
| < 1 µM | O=C(O)c1ccc(CN(CCc2ccccc2Cl)c2nc3cccc(F)c3s2)cc1 [Example 2, 4-(((2-chlorophenylethyl)(7-fluorobenzo[d]thiazol-2-yl)amino)methyl)benzoic acid] |
| < 1 µM | COc1ccc(CCN(Cc2ccc(C(=O)O)cc2)c2nc3cccc(Cl)c3s2)cc1 [Example 83, 4-({(7-chloro-benzo[d]thiazol-2-yl)[2-(4-methoxyphenyl)ethyl]amino}methyl)benzoic acid] |
| < 1 µM | COc1ccc(CCN(c2nc3cccc(F)c3s2)C(C)c2ccc(C(=O)O)cc2)c(C)c1C (stereo not drawn) [Example 63, 4-(1-{(7-fluorobenzo[d]thiazol-2-yl)[2-(4-methoxy-2,3-dimethylphenyl)ethyl]amino}ethyl)benzoic acid] |
| < 1 µM | CN(C)c1ccc(CCN(Cc2ccc(C(=O)O)cc2)c2nc3cccc(F)c3s2)cc1 [Example 21, 4-{[{2-[4-(dimethylamino)phenyl]ethyl}(7-fluorobenzo[d]thiazol-2-yl)amino]methyl}benzoic acid] |
| > 10 µM | Cc1cccc(CCN(Cc2ccc(C(=O)O)cc2)c2nc3cccc(F)c3s2)c1 [Example 17, 4-({(7-fluorobenzo[d]thiazol-2-yl)[2-(3-methylphenyl)ethyl]amino}methyl)benzoic acid] |
| < 1 µM | COc1ccc(CCN(Cc2ccc(C(=O)O)cc2)c2nc3cccc(F)c3s2)cc1Cl [Example 29, 4-({[2-(3-chloro-4-methoxyphenyl)ethyl](7-fluorobenzo[d]thiazol-2-yl)amino}methyl)benzoic acid] |
| > 10 µM | COc1ccc(CCN(Cc2ccc(C(=O)O)cc2)c2nc3ccc(C(F)(F)F)cc3s2)cc1 [Example 119, 4-({[2-(4-methoxyphenyl)ethyl][6-(trifluoromethyl)benzo[d]thiazol-2-yl]amino}methyl)benzoic acid] |
| > 10 µM | COc1ccc(CCN(c2nc3ccc(C)c(F)c3s2)C(C)c2ccc(C(=O)O)cc2)cc1 (stereo not drawn) [Example 105, 4-(1-{(7-fluoro-6-methyl-benzo[d]thiazol-2-yl)[2-(4-methoxyphenyl)ethyl]amino}ethyl)benzoic acid] |
| > 10 µM | CCC(c1ccc(C(=O)O)cc1)N(CCc1ccc(OC)c(C)c1C)c1nc2cccc(F)c2s1 (stereo not drawn) [Example 71, 4-(1-{(7-fluorobenzo[d]thiazol-2-yl)[2-(4-methoxy-2,3-dimethylphenyl)ethyl]amino}propyl)benzoic acid] |
| < 1 µM | COc1ccc(CCN(Cc2ccc(C(=O)O)cc2)c2nc3cccc([N+](=O)[O-])c3s2)cc1 [Example 80, 4-({[2-(4-methoxyphenyl)ethyl](7-nitro-benzo[d]thiazol-2-yl)amino}methyl)benzoic acid] |
| > 10 µM | O=C(O)c1ccc(CN(CCc2ccc(F)cc2F)c2nc3cccc(F)c3s2)cc1 [Example 39, 4-({[2-(2,4-difluorophenyl)ethyl](7-fluorobenzo[d]thiazol-2-yl)amino}methyl)benzoic acid] |

Same assay, conditions: laminin 10 μg/mL in lower well, test compounds 0.39˜100 μM, 6 hours, migrated cells counted, read-out: Inhibitory activity against cell migration

| IC50 | SMILES |
| --- | --- |
| > 10 µM | COc1cccc(CCN(Cc2ccc(C(=O)O)cc2)c2nc3cccc(F)c3s2)c1 [Example 42, 4-({(7-fluorobenzo[d]thiazol-2-yl)[2-(3-methoxyphenyl)ethyl]amino}methyl)benzoic acid] |
| 1 to 10 µM | COc1cccc(CCN(Cc2ccc(C(=O)O)cc2)c2nc3cccc(F)c3s2)c1 [Example 7, 4-({(7-fluorobenzo[d]thiazol-2-yl)[2-(3-methoxyphenyl)ethyl]amino}methyl)benzoic acid] |
